Data on 29 compounds can be found in patent publication US4490527A, “Benzo-fused heterocyclic anti-ulcer agents” (American Home Products Corporation, priority 1983, dated 1984).

Counter-ions that a name gives are not always drawn. Like-named read-outs stand apart in the source and are kept apart here.

One test has as its target H2 histamine receptors (Cavia porcellus, UniProt P47747). Nature of the test: cell-based. More on the design: species or system guinea pig. To be noted: vs histamine dose-response, 32° C., pH 7.4.
For the next test, the system named is gastric acid secretion. Nature of the test: gastric secretion in the rat, modified Shay procedure of pylorus ligation. Format: in vivo. To be noted: intraduodenal, 4 h, i.d., four hours after ligation, read-out: % Inhibition (of acid output). On the procedure: The procedure for testing gastric secretion in the rat, a modification of the procedure of Shay et al., Gastroenterology, 26, 906-13 (1954) is carried out as follows: Male Charles River rats weighing 200-300 grams are deprived of food but not water for 24 hours prior to use. Water is, however, withheld during the experiment. The rats are weighed, anesthetized, and the pylorus ligated according to the method of Shay et al. Treatment or vehicle control is then administered interduodenally (i.d.). Rats are housed 2/cage and sacrificed with CO2 four hours after ligation. The stomachs are removed, rinsed, and contents emptied into a graduated centrifuge tube. The tubes are centrifuged for 20 minutes at 2,000 RPM and the volume of gastric juice recorded. Any samples obviously contaminated by feces, food or hemolysis are eliminated. An aliquot of each is frozen for later analysis of Na^+, K^+ and Cl^- concentration. The pH is measured and 1 ml. of gastric juice is titrated with 0.1N NaOH to a pH of 7.0-7.4. Titratable acid output is calculated in microequivalents and the percent inhibition of acid output is calculated as follows: [formula]

The mark [1] stands for this setting: 30 min after addition, results of three experiments, read-out: pA2 Value (apparent dissociation constant of the H2 antagonist) (converted).
Where [2] appears, read: 30 min after addition, results of three experiments.
The mark [3] stands for this setting: marked *, result of only one experiment, read-out: KB value.

Sequence of H2 histamine receptors (P47747 whole entry): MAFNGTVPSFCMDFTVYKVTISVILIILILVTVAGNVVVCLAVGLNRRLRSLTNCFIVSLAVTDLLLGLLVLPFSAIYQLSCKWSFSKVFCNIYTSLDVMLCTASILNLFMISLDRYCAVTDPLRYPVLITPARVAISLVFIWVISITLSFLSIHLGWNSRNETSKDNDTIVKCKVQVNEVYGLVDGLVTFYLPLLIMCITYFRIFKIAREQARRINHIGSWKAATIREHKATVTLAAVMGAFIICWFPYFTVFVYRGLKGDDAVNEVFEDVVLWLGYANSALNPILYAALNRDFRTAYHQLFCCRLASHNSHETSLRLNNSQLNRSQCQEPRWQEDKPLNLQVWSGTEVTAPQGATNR
Experimental for H2 histamine receptors: The guinea pig heart atrium test is carried out as follows:
A guinea pig right atrium is suspended at 1 g. tension (isometric) in a thermostatically controlled (32° C.) tissue bath (10 ml) containing oxygenated (95% O2 ; 5% CO2) Krebs-Haenseleit buffer (pH 7.4). The tissue is allowed to stabilize over 1 hour. Individual contractions are recorded with a force-displacement transducer through a strain gauge coupler. A control dose-response curve to histamine in the above described tissue bath is obtained after which the tissue is washed 3 times and allowed to re-equilibrate to basal rate. The test compound is added to the tissue bath at the desired final concentration. Thirty minutes after addition of the compound, a fresh histamine dose response curve is again obtained. Then the response to histamine in the presence of antagonist is compared to the histamine control response. This procedure is repeated, using fresh tissues, for each concentration of antagonist tested. […] Cimetidine is used as the standard for this test.

On to `O=S1(=O)N=C(NCCCOc2cccc(CN3CCCCC3)c2)c2ccccc21` [Example 2, N-[3-[3-[(1-piperidinyl)methyl]phenoxy]propyl]-1,2-benzisothiazol-3-amine 1,1-dioxide], for which the Kb on H2 histamine receptors (setting [1]) was 7.94 nM.

For `NC(N)=Nc1nc(CSCCNC2=NS(=O)(=O)c3ccccc32)cs1` [Example 3, [4-[[[2-[(1,2-benzisothiazol-3yl)amino]ethyl]thio]methyl]-2-thiazolyl]guanidine S',S'-dioxide], the Kb at H2 histamine receptors (setting [1]) is 2 nM.

For `O=C1N=C(NCCCOc2cccc(CN3CCCCC3)c2)c2ccccc21` [Example 4, 3-[[3-[3-[(1-piperidinyl)methyl]phenoxy]propyl]amino]-1H isoindol-1-one, dihydrochloride, quarter hydrate], the Kb on H2 histamine receptors (setting [1]) was 251 nM.

Turning to `O=[N+]([O-])c1ccc2c(c1)S(=O)(=O)N=C2NCCCOc1cccc(CN2CCCCC2)c1` [Example 5, N-[3-[3-[(1-piperidinyl)methyl]phenoxy]propyl]-6-nitro-1,2-benzisothiazol-3-amine 1,1-dioxide, hydrochloride], the Kb at H2 histamine receptors (setting [1]) was 50.1 nM.

Turning to `Nc1ccc2c(c1)S(=O)(=O)N=C2NCCCOc1cccc(CN2CCCCC2)c1` [Example 6, N-[3-[3-[(1-piperidinyl)methyl]phenoxy]propyl]-6-amino-1,2-benzisothiazol-3-amine 1,1-dioxide], the Kb at H2 histamine receptors (setting [1]) is 20 nM.

On to `O=S1(=O)N=C(NCCCOc2cccc(CN3CCCCC3)c2)c2ccc(Cl)cc21` [Example 7, N-[3-[3-[(1-piperidinyl)methyl]phenoxy]propyl]-6-chloro-1,2-benzisothiazol-3-amine 1,1-dioxide, hydrochloride salt hemihydrate], for which the Kb on H2 histamine receptors (setting [1]) is 31.6 nM.

For the compound `O=S1(=O)N=C(NCCCOc2cccc(CN3CCCCC3)c2)c2ccc(F)cc21` [Example 8, N-[3-[3-[(1-piperidinyl)methyl]phenoxy]propyl]-6-fluoro-1,2-benzisothiazol-3-amine 1,1-dioxide], at H2 histamine receptors (setting [1]), the Kb is 20 nM.

In the case of `O=S1(=O)N=C(NCCCOc2cccc(CN3CCCCC3)c2)c2cc(Cl)c(Cl)cc21` [Example 9, N-[3-[3-[(1-piperidinyl)methyl]phenoxy]propyl]-5,6-dichloro-1,2-benzisothiazol-3-amine 1,1-dioxide, monohydrochloride salt], on H2 histamine receptors (setting [2]), the “pA2 Value (apparent dissociation constant of the H2 antagonist)” value (“pA2 Value” below) is on record as 6.7.

`Cc1ccc2c(c1)C(NCCCOc1cccc(CN3CCCCC3)c1)=NS2(=O)=O` [Example 10, N-[3-[3-[(1-piperidinyl)methyl]phenoxy]propyl]-5-methyl-1,2-benzisothiazol-3-amine 1,1-dioxide]: the Kb at H2 histamine receptors (setting [1]) is 50.1 nM.

Regarding `O=S1(=O)N=C(NCCCOc2cccc(CN3CCCCC3)c2)c2cc(Cl)ccc21` [Example 11, N-[3-[3-[(1-piperidinyl)methyl]phenoxy]propyl]-5-chloro-1,2-benzisothiazol-3-amine 1,1-dioxide, hydrochloride], the Kb at H2 histamine receptors (setting [1]) is 79.4 nM.

Consider `COc1ccc2c(c1)C(NCCCOc1cccc(CN3CCCCC3)c1)=NS2(=O)=O` [Example 12, N-[3-[3-[(1-piperidinyl)methyl]phenoxy]propyl]-5-methoxy-1,2-benzisothiazol-3-amine 1,1-dioxide, 2/3 oxalate, ethanolate], for which, on H2 histamine receptors (setting [2]), the “pA2 Value” value is given as 8.0.

Take `O=S1(=O)N=C(NCCCOc2cccc(CN3CCOCC3)c2)c2ccccc21` [Example 16, N-[3-[3-(4-morpholinylmethyl)phenoxy]propyl]-1,2-benzisothiazol-3-amine 1,1-dioxide, hydrochloride]: at H2 histamine receptors (setting [2]), the “pA2 Value” value is given as less than 7.0. Further, the inhibition in vivo at 32 mg/kg in the test on gastric acid secretion turned out to be 39%.

`CCN(CC)Cc1cccc(OCCCNC2=NS(=O)(=O)c3ccccc32)c1` [Example 19, N-[3-[3-[(diethylamino)methyl]phenoxy]propyl]-1,2-benzisothiazol-3-amine 1 ,1-dioxide, hydrochloride]: the Kb at H2 histamine receptors (setting [1]) was 200 nM. Also, in the test on gastric acid secretion, the inhibition in vivo at 16 mg/kg was found to be 52% and the inhibition in vivo at 32 mg/kg is 78%.

For the compound `CN(C)Cc1cccc(OCCCNC2=NS(=O)(=O)c3ccccc32)c1` [Example 21, N-[3-[3-[(dimethylamino)methyl]phenoxy]propyl]-1,2-benzisothiazol-3-amine 1,1-dioxide, hydrochloride, hemihydrate], the Kb on H2 histamine receptors (setting [1]) is 79.4 nM. For the same compound, the inhibition in vivo at 32 mg/kg in the test on gastric acid secretion was determined as 72%.

For `CCCCN(CCCC)Cc1cccc(OCCCNC2=NS(=O)(=O)c3ccccc32)c1` [Example 22, N-[3-[3-[(dibutylamino)methyl]phenoxy]propyl]-1,2-benzisothiazol-3-amine 1 ,1-dioxide, hydrochloride, hemihydrate], the Kb on H2 histamine receptors (setting [1]) is 6.31 nM. Also, in the test with gastric acid secretion, the inhibition in vivo at 4 mg/kg was determined as 42%, the inhibition in vivo at 16 mg/kg is 53% and the inhibition in vivo at 32 mg/kg turned out to be 68%. Further, the inhibition in vivo at 8 mg/kg in the test with gastric acid secretion (Dose 8 mg/kg) was found to be 62%.

`O=S1(=O)N=C(NCCCOc2cccc(CN3CCSCC3)c2)c2ccccc21` [Example 23, N-[3-[3-[(4-thiomorpholinyl)methyl]phenoxy]propyl]-1,2-benzisothiazol-3-amine 1,1-dioxide, hydrochloride]: at H2 histamine receptors (setting [1]), the Kb is 25.1 nM.

`O=S1(=O)N=C(NCCCOc2cccc(CN3CCSC3)c2)c2ccccc21` [Example 25, N-[3-[3-[(3-thiazolidinyl)methyl]phenoxy]propyl]-1,2-benzisothiazol-3-amine 1,1-dioxide, hydrochloride]: at H2 histamine receptors (setting [1]), the Kb was 40.7 nM. Besides, in the test on gastric acid secretion, the inhibition in vivo at 4 mg/kg amounted to 48%.

As for `O=S1(=O)N=C(NCCCOc2cccc(CN3CCCCCCC3)c2)c2ccccc21` [Example 26, N-[3-[3-[(octahydro-1(2H)-azocinyl)methyl]phenoxy]-propyl]-1,2-benzisothiazol-3-amine 1,1-dioxide, hydrochloride], on H2 histamine receptors (setting [1]), the Kb was 20 nM.

For the compound `O=S1(=O)N=C(NCCCOc2cccc(CNC3CCCCC3)c2)c2ccccc21` [Example 27, N-[3-[3-[(cyclohexylamino)methyl]phenoxy]propyl]-1,2-benzisothiazol-3-amine 1,1-dioxide, hydrochloride], the Kb on H2 histamine receptors (setting [1]) was 44.7 nM.

As for `O=S1(=O)N=C(NCCCOc2cccc(CNC3CCCC3)c2)c2ccccc21` [Example 28, N-[3-[3-[(cyclopentylamino)methyl]phenoxy]propyl]-1,2-benzisothiazol-3-amine 1,1-dioxide, hydrochloride], the Kb at H2 histamine receptors (setting [1]) was 25.1 nM. Further, in the test on gastric acid secretion, the inhibition in vivo at 16 mg/kg turned out to be 75% and the inhibition in vivo at 32 mg/kg was 49%.

For `O=S1(=O)N=C(NCCCOc2cccc(CNCc3ccco3)c2)c2ccccc21` [Example 29, N-[3-[3-[[[(2-furanyl)methyl]amino]methyl]phenoxy]-propyl]-1,2-benzisothiazol-3amine 1,1-dioxide, hydrochloride], the Kb on H2 histamine receptors (setting [1]) is 69.2 nM. The inhibition in vivo at 32 mg/kg with gastric acid secretion worked out at 50%.

Take `O=S1(=O)N=C(NCCCOc2cccc(CNCc3ccccc3)c2)c2ccccc21` [Example 30, N-[3-[3-[(benzylamino)methyl]phenoxy]propyl]-1,2-benzisothiazol-3-amine1,1-dioxide, hydrochloride, quarter hydrate]: the Kb at H2 histamine receptors (setting [1]) was 63.1 nM.

Turning to `CC(C)CN(Cc1cccc(OCCCNC2=NS(=O)(=O)c3ccccc32)c1)CC(C)C` [Example 31, N-[3-[3-[[bis(2-methylpropyl)amino]methyl]phenoxy]-propyl]-1,2-benzisothiazol-3-amine 1,1-dioxide], the Kb on H2 histamine receptors (setting [1]) is 63.1 nM.

Turning to `CCCCNCc1cccc(OCCCNC2=NS(=O)(=O)c3ccccc32)c1` [Example 32, N-[3-[3-[(butylamino)methyl]phenoxy]propyl]-1,2-benzisothiazol-3-amine 1,1-dioxide, hydrochloride, hemihydrate], the Kb on H2 histamine receptors (setting [1]) is 63.1 nM.

For `CCCCCN(C)Cc1cccc(OCCCNC2=NS(=O)(=O)c3ccccc32)c1` [Example 34, N-[3-[3-[(methylpentylamino)methyl]phenoxy]propyl]-1,2-benzisothiazol-3-amine 1,1-dioxide], the Kb at H2 histamine receptors (setting [1]) was 10 nM.

Regarding `CCCCN(CCC)Cc1cccc(OCCCNC2=NS(=O)(=O)c3ccccc32)c1` [Example 35, N-[3-[3-[(butylpropylamino)methyl]phenoxy]propyl]-1,2-benzisothiazol-3-amine 1,1-dioxide], the Kb at H2 histamine receptors (setting [3]) stood at 14 nM. Also, in the test with gastric acid secretion, the inhibition in vivo at 32 mg/kg worked out at 55%.

For `CCCCCN(CCCCC)Cc1cccc(OCCCNC2=NS(=O)(=O)c3ccccc32)c1` [Example 37, N-[3-[3-[(dipentylamino)methyl]phenoxy]propyl]-1,2-benzisothiazol-3-amine 1,1-dioxide], the inhibition in vivo at 32 mg/kg in the test on gastric acid secretion stood at 38%.

For `NC(N)=Nc1nc(CSCCNC2=NS(=O)(=O)c3cscc32)cs1` [Example 40, [4-[[[2-[(Thieno[3,4-d]Isothiazol-3-yl)Amino]Ethyl]Thio]Methyl]-2-Thiazolyl]Guanidine-S',S'-Dioxide], the Kb on H2 histamine receptors (setting [3]) amounted to 100 nM.

Consider `CNC(=NC#N)NCCSCc1csc(N=C(N)N)n1` [tiotidine, reference compound], for which the inhibition in vivo at 4 mg/kg in the test on gastric acid secretion is 16%.
